From patent US8187821B2, “Compositions and methods for the modulation of PGRMC1” (University of Utah Research Foundation, priority 2008, dated 2012)

Legend:
His10-PGRMC1 = target: T1, His10-PGRMC1 (Homo sapiens, UniProt O00264); experiment: Competition of cold competitors with [^3H] progesterone or [^3H] cholesterol for His10-PGRMC1 binding; conditions: for effect of cold competitor on binding of [^3H] cholesterol: competitor at ten-fold higher concentration; for effect of cold competitor on specific [^3H] progesterone binding: competitor in ten-fold excess
T1 construct: a product containing the full length coding region of PGMRC1 flanked by Nde1 and BamHI restriction sites; made in house; host or cells: E. coli BL21 (DE3) / BL21 codon plus (RIPL); purified bacterial membranes
T1 sequence (O00264 whole entry): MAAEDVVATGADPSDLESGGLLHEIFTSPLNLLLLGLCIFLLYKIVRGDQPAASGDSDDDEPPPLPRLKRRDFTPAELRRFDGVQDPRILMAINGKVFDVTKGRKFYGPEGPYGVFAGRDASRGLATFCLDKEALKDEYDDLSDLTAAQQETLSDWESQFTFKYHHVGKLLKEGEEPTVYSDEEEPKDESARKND
Procedure: The standard 10 μL binding reaction contained 10 μp purified membranes (total protein) and 10 μM [^3H] progesterone or [^3H] cholesterol (3,000-5,000 cpm) in buffer A: 20% ethanol. Stock solutions (100 μM) of [^3H] cholesterol and [^3H] progesterone containing ˜4×10^4 cpm/μL, were prepared in 95% ethanol. Reactions were prepared in clear 2.0 mL microcentrifuge tubes on ice. To start the reaction, the microfuge tube was briefly mixed (vortex) and placed at 37° C. Following a 10 to 30 min incubation, the tubes were centrifuged in a microfuge (˜13,000 rpm) for 2 min. The supernatant was carefully removed and the pellet was washed with an additional 10 μL water. After a second round of centrifugation (2 min; 13,000 rpm), the resulting supernatant was combined with the first and the pellet was resuspended in 20 μL H2O, Scintillation fluid (700 μL Wallac Optiflour) was added to each fraction and the fractions were mixed extensively. The fractions were then counted in a multi-well scintillation counter (Wallac Microbeta Triluxmax, Waltham, Mass.) for 30 seconds each. Binding are reported as μ/moles of ligand bound per mg of membrane protein. His10-PGRMC1 (His10 disclosed as SEQ ID NO: 14)-specific binding is reported as the difference in binding between transformed and untransformed bacteria. Experimental deviations from the standard assay conditions are noted in individual figure legends.
To test whether progesterone and cholesterol compete for the same specific binding site, the direct binding of [^3H] progesterone or [^3H] cholesterol to His10-PGRMC1 (His10 disclosed as SEQ ID NO: 14) in the presence of various cold competitors was examined. In these experiments, the standard amount of [^3H] ligand was combined with a cold competitor at either 10 or 100-fold higher concentration and mixed well to ensure homogeneity. These stock ligand solutions were then used in the standard binding assay as described.
The ability of other putative ligands reported in the literature to compete with progesterone binding was examined. […] As a control, cold progesterone (P) was used as a competitor and it was observed that excess cold progesterone competes with [^3H] progesterone for His10-PGRMC1 (His10 disclosed as SEQ ID NO: 14) binding. Contrastingly, binding of [^3H] cholesterol to His10-PGRMC1 (His10 disclosed as SEQ ID NO: 14) was unaffected by the presence of progesterone, ergosterol, or heme at ten-fold higher concentrations (FIG. 9, cholesterol). It was not until competitor concentrations were 100-fold higher than ligand that a reduction of cholesterol binding was observed.

dap1Δ S. cerevisiae = experiment: Amphotericin B sensitivity of dap1Δ yeast; format: cell-based; conditions: 37° C; data not shown
Procedure: PGRMC1 and its homologues have been implicated to be involved in a number of distinct biological processes. […] Additionally, dap1Δ S. cerevisiae appears to be resistant to the polyene antibiotic amphotericin B at 37° C. (data not shown). Amphotericin B functions in a similar manner as nystatin in binding to and depleting membrane ergosterol thereby killing the cell.

effect of cold competitor on binding of [^3H] cholesterol (His10-PGRMC1)	effect of cold competitor on specific [^3H] progesterone binding (His10-PGRMC1)	Structure (SMILES)	sensitivity of dap1Δ strain to the antibiotic (dap1Δ S. cerevisiae)
unaffected	reduced	CC(C)[C@@H](C)/C=C/[C@@H](C)[C@H]1CC[C@H]2C3=CC=C4C[C@@H](O)CC[C@]4(C)[C@H]3CC[C@]12C [ergosterol]	
		C[C@@H]1[C@H](O)[C@@H](C)/C=C/C=C/C=C/C=C/C=C/C=C/C=C/[C@H](O[C@@H]2O[C@H](C)[C@@H](O)[C@H](N)[C@@H]2O)C[C@@H]2O[C@](O)(C[C@@H](O)C[C@@H](O)[C@H](O)CC[C@@H](O)C[C@@H](O)CC(=O)O[C@H]1C)C[C@H](O)[C@H]2C(=O)O [amphotericin B]	resistant
unaffected	reduced	C=CC1=C(C)c2cc3[n-]c(cc4[n-]c(cc5nc(cc1n2)C(C)=C5C=C)c(C)c4CCC(=O)O)c(CCC(=O)O)c3C.[Fe+2] [heme]	
